Reference: US7718768B2, “Biologically active peptide [sequence]” (CMS Peptides Patent Holding Company Limited, priority 2001, dated 2010)
Marks after values point to notes of the source that are not given here. No end group written: not given here.

What was measured:
[1] = system: T lymphocyte; assay: T lymphocyte transformation test (ConA, MTT) on spleen cells of treated mice; format: in vivo, BALB/c mice; parameters: key: OD of assay wells divided by OD of control wells; details: IFN-γ and IL-2 groups 3×10^5 IU/kg/day, X ± SD
Protocol: (§1) The above substances were all dissolved in 0.5 ml saline and injected intraperitoneal (i.p.) for 15 continuous days, once per day.
Ten mice per group. The day after the last test substance administration, the mice were sacrificed by cervical dislocation. The spleen was isolated aseptically and manually dispersed in cold D-Hank's solution using an injection needle. The dispersed cell suspension was further sieved through a 100 gauge 150 μm diameter stainless steel sieve. After centrifugation at 200 g for 10 minutes, the supernatant was discarded. The cell pellet was re-suspended in 10 volume of Tris-NH4Cl buffer and then kept standing still for 10 minutes at room temperature. The suspended cells were collected by centrifugation at 150 g for 10 minutes. The cells were washed 2-4 times with cold D-Hank's solution by re-suspending and collecting by centrifugation with condition as described above. The washed cells were then diluted to the desired cell densities by RPMI-1640 culture medium, containing 10% fetal bovine serum.
(§2) Spleen cells of density 1×10^6/ml were placed onto a 96 wells cell culture plate, 100 μl/well, three parallel wells each of the assay sample and control sample per mouse. To the assay wells, 100 μl/well ConA of 100 μg/ml in RPMI-1640 was added, and 100 μl/well plain RPMI-1640 was used for the controls. The cells were incubated for 66 hrs at 37° C., 5% CO2. The cells were then pelleted by centrifugation at 150 g for 10 minutes.
50 μl/well MTT of 1 mg/ml in RPMI-1640 was added to the cell pellet and the cells re-suspended by shaking for 2 minutes. The incubation was continued for 4 hours. The supernatant was discarded after centrifugation at 150 g for 10 minutes. 120 μl 40 mM HCl-2-propanol was added to the cell pellet and shaken for 3 minutes. to obtain OD570nm of each well referenced at 630 nm. An ELISA reader was used
Each mouse formed three assay wells and three control wells. The Stimulation Index (SI) of each mouse was obtained by first deriving the average OD of the three parallel wells, then dividing the value of the assay wells by the control wells.

[2] = system: anti-SRBC antibody; assay: humoral immunity (SRBC hemolysis index) of mice bearing transplanted B16 melanoma; format: in vivo, C57BL/6 mice; parameters: key: index = (OD540 of test sample ÷ reference OD540) × 500
Protocol: Intraperitoneal injection, once per day. […] Treatment of all groups with testing substance lasted for 30 days or until the animal died unless otherwise specified.
Stock B16 mouse melanoma cells were incubated in DMEM/F12 medium supplemented with 10% fetal bovine serum, 37° C./5% CO2 for 72 hrs, then washed 3-4 times with Hank's solution. The cell concentration was adjusted to 1×10^5 per ml with Hank's solution and 0.1 ml of the cell suspension was injected via the tail vein into the testing mice to generate the B16 melanoma bearing animal model. Treatment with test substance started as described in section Method 1.
Sheep red blood cells (SRBC) were prepared by collecting blood from the cervical vein and put into a sterile flask with glass beads. The flask was shaken for 3 minutes and the blood then mixed with Alsever solution (glucose 2.05 g, NaCl 0.4 g, […] 0.8 g, adjust to 100 ml with distilled water) and stored at 4° C. Immediately before use, samples were centrifuged at 130 g, 5 minutes to collect the SRBC. The cells were washed two times by re-suspension and centrifugation in normal saline. Then the cell pellet was collected by centrifugation at 180 g for 10 minutes and re-suspended in saline to make the final working SRBC suspension, 2% (v/v).
Complement was prepared by adding 10 volumes of fresh Cavy serum into one volume centrifuge packed SRBC, and then gently shaken for 30 minutes at 4° C. The SRBC was removed by centrifugation at 200 g for 10 minutes. 10 volumes of normal saline were added to obtain the working complement solution.
On the testing animals, on the 27th date of test substance treatment, 0.2 ml of the working SRBC cell suspension was injected into each animal to raise antibody. On the day after the last test substance administration, blood was collected from the eye canthus and left at room temperature for one hour for serum exudation. After centrifugation at 200 g for 10 minutes, the collected serum was diluted by 500 times with normal saline.
To 1 ml diluted mouse serum of each mouse, 0.5 ml SRBC suspension was added. Ice cold. Then 1 ml working complement solution was added and incubated at 37° C. water bath for 10 minutes. Reactions were terminated by ice cold. Samples were then centrifuged at 200 g for 10 minutes to obtain the supernatant.
To 1 ml of this supernatant, 3 ml Drabkin solution was added and left at room temperature for 10 minutes. OD540nm was obtained.
Reference OD540nm was obtained by mixing 0.25 ml SRBC suspension with Drabkin solution to 4 ml and placed at room temperature for 10 minutes before OD540nm was taken. Hemolysis index=(OD540nm of test sample÷reference OD540 nm)×500 6.2 After the Humoral Immunity Study, the Mice were Killed by Cervical Vertebra Dislocation. Postmortum Examination of the Animals was Performed. The Pathological Changes were Recorded, and the Numbers of Melanoma Lung Metastasis Foci were Counted. Results 1. The Effect of Peptide on the Cellular Phagocytosis in BALB/c Mice with Transplanted S180 Sarcoma (Method 2.1)

[3] = system: T lymphocyte; assay: T lymphocyte IL-2 secretion test (HT-2 cell bioassay of ConA supernatant); format: in vivo, BALB/c mice; details: IFN-γ and IL-2 groups 3×10^5 IU/kg/day, X ± SD
Protocol: as §1, §2
HT-2 cells at log phase were collected by centrifugation at 150 g for 10 minutes, and washed three times with cold Hank's solution by re-suspension and centrifugation. The collected HT-2 cells were re-suspended in RPMI-1640 and incubated at 37° C., 5% CO2 for 30 minutes. The cells were further washed twice with RPMI-1640 by re-suspension and centrifugation, and re-suspended to final concentration of 2×10^5/ml with RPMI-1640.
rIL-2 was diluted to the following concentration with RPMI-1640: 500 IU/ml, 250 IU/ml, 125 IU/ml, 62.5 IU/ml, 31.25 IU/ml, and […].
A 96 well cell culture plate was set up with three parallel wells per combination:
Negative control: 100 μl RPMI-1640+100 μl HT-2 cell suspension
rIL-2 standard: 100 μl rIL-2 solution+100 μl HT-2 cell suspension
Assay well: 100 μl diluted supernatant+100 μl HT-2 cell suspension
The plate was incubated at 37° C., 5% CO2 for 68 hours, then centrifuged at 150 g for 15 minutes and the supernatant removed. 100 μl 0.5 mg/ml MTT in RPMI-1640 without phenolsulfonphthalein was added into each well. After shaking for 3-4 minutes to re-suspend the cells, continue to incubate for another 4 hours. Samples were then centrifuged at 150 g for 15 minutes and the supernatant was removed. To each well, 120 μl 40 mM HCl-2-propanol was added, mixed for 3-4 minutes and OD analyzed at 570 nm, referenced at 630 nm with an ELISA plate reader.
The average OD of the three parallel wells of each dilution was taken and plotted against concentration on a semi-log paper, concentration on the X-axis. The concentration at 50% OD saturation was obtained for both the testing supernatant and rIL-2.

[4] = peptide 5 μg/kg/day i.p. 15 days
[5] = peptide 50 μg/kg/day i.p. 15 days
[6] = peptide 0.5 μg/kg/day i.p. 15 days
[7] = peptide 500 μg/kg/day i.p. 15 days

Row | Molecule | stimulation index (T lymphocyte transformation) [1, 4] | stimulation index (T lymphocyte transformation) [1, 5] | Hemolysis index ([2]; 0.5 μg/kg i.p. once per day) | Hemolysis index ([2]; 5 μg/kg i.p. once per day) | Hemolysis index ([2]; 50 μg/kg i.p. once per day) | Hemolysis index ([2]; 500 μg/kg i.p. once per day) | activity of T lymphocyte in secreting IL-2 [3, 5] | stimulation index (T lymphocyte transformation) [1, 6] | stimulation index (T lymphocyte transformation) [1, 7] | activity of T lymphocyte in secreting IL-2 [3, 7] | activity of T lymphocyte in secreting IL-2 [3, 6] | Hemolysis index ([2]; 3 × 10^5 IU/kg i.p. once per day) | activity of T lymphocyte in secreting IL-2 [3, 4] [IU]
1 | FNFVPP [CMS003] | 1.6 ± 0.2 | 2.2 ± 0.5*^@^ | 61.6 ± 26.9*^$ | 37.2 ± 15.9*^$ | 38.7 ± 13.5*^$ | 35.9 ± 13.0*^$ | 86 ± 9*^ IU |  |  |  |  |  | 
2 | IGMESAGIHETTY [CMS016] |  |  |  |  |  | 43.3 ± 29.9 |  |  |  |  |  |  | 
3 | KAVGHLDDLPGAL [CMS008] |  |  | 42.7 ± 18.4*^$ | 38.9 ± 12.0*^$ | 37.1 ± 16.7*^$ | 50.1 ± 17.8*^$ |  | 1.7 ± 0.3 |  |  |  |  | 
4 | LRVAPEEHPTL [CMS009] |  |  |  |  |  |  |  |  | 1.7 ± 0.2 | 114 ± 13*^@^ IU |  |  | 
5 | PSIVGRPRHQGVM [CMS015] |  |  |  |  |  |  |  |  | 1.9 ± 0.3*^@^ | 85 ± 17*^ IU |  |  | 
6 | PTTKTYFPHF [CMS001] | 1.7 ± 0.2 | 2.2 ± 0.5*^@^ | 51.0 ± 16.2*^$ | 41.3 ± 17.7*^$ | 45.0 ± 31.9*^$ | 36.0 ± 10.2*^$ | 60 ± 10 IU |  |  |  |  |  | 
7 | Phe Val Asn Asp (FVND; listed as Sus scrofa) [CMS035] |  |  |  | 38.9 ± 21.2*^$ | 44.7 ± 22.7*^$ | 40.5 ± 25.8 |  |  |  |  |  |  | 
8 | Pro Glu Asn Phe (PENF; listed as Sus scrofa) [CMS034] | 1.5 ± 0.2 |  | 50.8 ± 18.4*^$ | 43.0 ± 11.7*^$ | 30.2 ± 10.9 |  |  |  |  |  | 85 ± 10*^ IU |  | 
9 | RVAPEEHPTL [CMS011] |  |  | 32.0 ± 14.7 |  |  | 34.4 ± 19.4 |  | 1.6 ± 0.4 |  |  | 101 ± 19*^@^ IU |  | 
10 | Tyr Ser Leu (YSL; listed as Sus scrofa) [CMS024] |  |  | 43.0 ± 10.7*^$ | 42.2 ± 11.8*^$ | 27.8 ± 9.1 | 30.1 ± 10.0 |  |  |  |  |  |  | 
11 | VAPEEHPTLLTEAPLNPK [CMS010] |  |  | 34.9 ± 10.5*^$ | 51.0 ± 14.6*^$ | 39.6 ± 7.7*^$ | 50.1 ± 16.7*^$ |  | 1.7 ± 0.3 | 2.0 ± 0.3*^@^ | 125 ± 17*^@^ IU | 66 ± 11 IU |  | 
12 | VGMGQKDSY [CMS019] |  |  | 42.0 ± 12.0*^$ | 35.4 ± 15.1*^$ | 28.3 ± 7.6 |  |  |  | 1.8 ± 0.3 |  |  |  | 
13 | IFN-γ: recombinant mouse interferon-γ, Beijing Biotech Inc.; positive control immunostimulant (protein, UniProt P01580 23-155, looked up) Interferon gamma: HGTVIESLESLNNYFNSSGIDVEEKSLFLDIWRNWQKDGDMKILQSQIISFYLRLFEVLKDNQAISNNISVIESHLITTFFSNSKAKKDAFMSIAKFEVNNPQVQRQAFNELIRVVHQLLPESSLRKRKRSRC | 1.6 ± 0.2 | 1.7 ± 0.2 |  |  |  |  | 99 ± 16 IU | 1.6 ± 0.2 | 1.6 ± 0.2 | 100 ± 18 IU | 87 ± 15 IU | 60.5 ± 17.4 | 96 ± 14
